{
  "source": "patent US20210355107A1",
  "about": "“MULTI-SUBSTITUTED PYRIDONE DERIVATIVES AND MEDICAL USE THEREOF” (Beijing Yuezhikangtai Biomedicines Co., Ltd., priority 2018, published 2021)",
  "key": {"[1]": {"test_system": "human non-small cell lung cancer tumor cell strain EBC-1", "assay": "In vivo anti-tumor activity in model mice with ectopically grafted EBC-1 tumor cells", "conditions": "EBC-1 subcutaneous tumors in BALB/c-nude mice; 30 mg/kg intragastric once daily for 28 days; FIG. 1", "experimental": "(§1) Test Example 5: In Vivo Anti-Tumor Activity of Compounds disclosed herein in Model Mice with Ectopically Grafted Tumor Cells\n(§2) 3×10^6 cells of human non-small cell lung cancer tumor cell strain EBC-1 (ATCC) were inoculated subcutaneously into BALB/c-nude model mice (Beijing AniKeeper Biotech, 10 female mice). When the subcutaneous tumors in mice each grew to 175.5 mm^3, the mice were administered intragastrically with test samples.\nThe mice were divided into a negative control group and an example compound group (compound of Example 3) (30 mg/kg) with 5 mice per group. The mice in the negative control group were administered with 10% solutol HS-15, which was prepared by adding 10 mL of solutol HS-15 to 90 mL of ddH2O and then mixing well by vortexing. […]\nAfter the start of the administration, the body weight and tumor size of each mice were measured twice a week. […]\nThe anti-tumor efficacy was evaluated based on the growth curve of the tumor (i.e., tumor volume per measurement versus its treatment days) and relative tumor volume during treatment. The relative tumor inhibition (TGI) was calculated according to the following formula: […]\nRelative tumor volume RTV was calculated as follows: RTV=[…], where V0 is the tumor volume of the animal at the time of grouping, and Vt is the tumor volume of the animal after treatment."}, "[2]": {"assay": "Body weight of EBC-1 tumor-bearing mice during treatment", "type": "in vivo", "conditions": "EBC-1 BALB/c-nude mice; 30 mg/kg intragastric once daily for 28 days; FIG. 2", "experimental": "as §1, §2\nThe mice were divided into a negative control group and an example compound group (compound of Example 3) (30 mg/kg) with 5 mice per group. The mice in the negative control group were administered with 10% solutol HS-15, which was prepared by adding 10 mL of solutol HS-15 to 90 mL of ddH2O and then mixing well by vortexing. The mice in the example compound group were administered with a compound solution at a concentration of […] which was prepared by dissolving the compound of Example 3 in 10% solutol HS-15. The mice in both the solvent control group and the example compound group were subjected to intragastric administration once daily for 28 days at a dosage of 10 μL per gram of body weight.\nAfter the start of the administration, the body weight and tumor size of each mice were measured twice a week. The calculation formula for tumor size is as follows: […]"}},
  "data": [
    {"molecule": "CCn1cc(-c2cnc(N)c(-c3ccc(NC(=O)c4cn(C(C)C)c(C#N)c(-c5ccc(F)cc5)c4=O)cc3F)c2)cn1", "note": "[Example 3, N-(4-(2-amino-5-(1-ethyl-1H-pyrazol-4-yl)pyridin-3-yl)-3-fluoro-phenyl)-6-cyano-5-(4-fluorophenyl)-1-isopropyl-4-oxo-1,4-dihydropyridine-3-carboxamide]", "values": [
      {"measurement": "tumor growth inhibition (TGI)", "setting": "[1]", "value": "up to 108%"},
      {"measurement": "body weight change of tumor-bearing mice", "setting": "[2]", "value": "does not change significantly"}
    ]}
  ]
}
